Consider 15 molecules from patent US20070254907A1, “COMPOSITIONS AND METHODS FOR CONTROLLING INFESTATION” (HATCHTECH PTY LTD, priority 2003, published 2007).

One may read the % Inhibition as the relative decrease from the control value, in per cent. A high value points to a response far below the control.

Structures are written as SMILES. “And” between values parts separate entries of the source, which are not always exact repeats. Equal values may be shown once. Square brackets hold non-standard residues; d marks the D form. Peptide text beside a SMILES is read from it. * marks the point of attachment. Sta = CC(C)C[C@H](N)[C@@H](O)CC(=O)O; Isovaleryl = CC(C)CC(=O)*

The test system of series [1] is Lice (L) and Plutella (P) eggs. The series can be described thus: whole plant or invertebrate. The note with it: read-out: Ovicidal activity %.
Series [2] relates to Lice (L) and Plutella (P) eggs.
Series [3] concerns lice eggs. In words: whole plant or invertebrate. To be noted: for H (number of eggs successfully hatched) / Ph (number of eggs partly hatched): per replicate, concentration not given. Format: in vivo.
For series [4], the system named is Helicoverpa armigera eggs. In words: Egg hatching of Helicoverpa armigera. The note with it: 1% diethoxyglycol in water (FIG. 6).
Series [5] concerns Plutella xylostella eggs. In words: whole plant or invertebrate. Format: in vivo. The note with it: for ovicidal efficacy against Plutella: 1% diethoxyglycol (FIG. 7); for inhibition of Plutella egg hatching: 1% diethoxyglycol; for Number hatched / Number unhatched: Table 17, eggs laid on cloth; for % Inhibition: Table 17, relative to control (1% diethoxyglycol). The procedure: The ovicidal efficacy of 2-acetyl-1-tetralone was also tested against Plutella eggs.

The test system of series [6] is H. contortus eggs. The series can be described thus: Egg hatching in Haemonchus contortus. Format: in vivo. Here is the method: In an attempt to improve control of H. contortus the effects of the compound 5,5′-dimethyl-2,2′-dipyridyl was examined on H. contortus eggs. Eggs were recovered from the faeces of infected sheep using a standard sucrose floatation method. The eggs were corrected to a density of approximately 2,500 eggs per mL and were then exposed to varying concentrations of compound and incubated for 48 hours at 25° C. The eggs were then examined to determine the ovicidal efficacy of the compound in comparison to untreated control and a solvent only control.
In addition, the ovicidal efficacy of the compound 2-acetyl-1-tetralone was examined against H. contortus (FIG. 10). The same protocol was used as described for 5,5′-dimethyl-2,2′-dipyridyl.

The subject of series [7] is Plutella xylostella eggs. The series can be described thus: Glass house ovicidal test on sprayed cabbage plants. The note with it: 10 eggs per cabbage plant, one value per plant. Format: in vivo. From the text: A number of treatments and replicates were set up in the glass house using young cabbage plants that were at the 4-5 leaf stage. Plutella xylostella eggs were laid by gravid females on the leaves such that each plant contained 10 eggs. The plants were sprayed with a commercial ovicide or using the compounds 5,5′-dimethyl-2,2′-dipyridyl and 5,5′diethyl-2,2′-dipyridyl in a formulation at the rate of 200 L/Ha using a track sprayer. Controls of water only or Placebo only were also included. The ovicidal efficacy was monitored over a number of days an the number of eggs hatching and caterpillar larvae emerging recorded (Table 22).

The test system of series [8] is proteases in egg shell washings (ESW) of lice eggs. In words: Gelatin substrate SDS-PAGE of lice egg shell washings (ESW) incubated with protease inhibitors. To be noted: gel strips incubated with inhibitor: PMSF 5 mM, 1,10-phenanthroline 10 mM, EDTA 10 mM, pepstatin 5 μM, E-64 10 μM. Format: biochemical, Pediculus humanus humanus. The procedure:
Within 12 hours of hatching 50 body lice eggs (Pediculus humanus humanus) were removed from the hair and placed in a 1 mL eppendorf tube. 20 μL of distilled water was added to the unhatched eggs and the preparation incubated for 30 minutes at 32° C. The 20 μL was recovered, freeze dried and stored at −70° C. This sample was referred to as sample 1. A number of other samples were also collected as described. Sample 2 was collected by removing the unhatched louse eggs from four hairs that were approximately 3 cm long, cutting the hair into 0.5 cm lengths, and placing them into a microfuge tube containing 20 μl of distilled water and incubating at 32° C. for 30 minutes. Sample 3 was collected as for sample 2, but the hair was placed in a tube containing 10 mL of 1% sodium hypochlorite for 1 minute followed by five 1 minute washes in 25 mL of distilled water to remove the sodium hypochlorite before being incubated in a microfuge tube containing 20 μl of distilled water and incubated as for Sample 2. Sample 4 was collected from unhatched eggs which were removed from the hair and washed with 1% sodium hypochlorite and incubated in 20 μl of distilled water in the same manner as the hair in Sample 3. Finally, Sample 5 was collected from eggs that were within 24 hrs of hatching which were washed with 1% sodium hypochlorite, then returned to the incubator at 32° C. until they hatched, the empty egg shells collected 0-2 hrs after egg-hatching, placed in a 1 mL microfuge tube containing 20 μl of distilled water and incubated as for Samples 1-4. For all samples 1-5 the 20 μl of fluid was recovered, freeze-dried and stored at −70° C. The washings recovered from these freshly hatched egg shells are referred to as egg-shell-washings (ESWs). In order to look for the presence of proteases present in these different samples, the freeze-dried samples were resuspended in 15 μL of non-reducing SDS sample buffer, centrifuged at 10,000 g for 2 minutes and the entire 15 μL loaded on to 10% gelatine substrate SDS-PAGE gels. Gels were run at 4° C. for 10 minutes at 10 mA followed by a further 25 minutes at 15 mA per gel. They were then incubated for 2×20 minutes in a 2.5% Triton-X 100 solution followed by a three hour incubation in 0.1M Tris/HCl containing 1 mM CaCl2 pH 8.0. Activity was detected as clear areas on the gel the result of protease activity degrading the gelatine within the gel.
Protease activity in the ESWs from louse eggs was also examined using two-dimensional gel electrophoresis. It was necessary to collect large numbers of freshly hatched egg shells. Following egglaying onto pieces of cloth, adult female lice were removed and the cloth with the eggs washed with 1% sodium hypochlorite as for collection of ESWs. The eggs were then returned to the incubator and permitted to hatch. Typically 100 to 500 hatched egg shells were collected (0-2 hours post hatching), placed in a microfuge tube containing 200 μl of distilled water, incubated and sample treated as described above. For analysis, ESWs were resuspended in rehydration buffer (8 M Urea, 2% 3-[(3-cholamidopropyl) dimethylammonio]-1-propanesulfonate 2% Immobilised pH gradient buffer 3-10 (Amersham Phamacia Biotech, Uppsala, Sweden)) and used to rehydrate 7 cm Immobiline Dry strips pH 3-10 (Amersham Bioscience) overnight. Strips were transferred to the Multiphor II (Pharmacia, Sweden) apparatus, electrophoresed in the first dimension at 200 V for 1 min, increasing to 3,500 V over the next 90 min followed by 65 min at 3,500 V, equilibrated (6 M urea, 30% glycerol, 50 mM Tris pH 8.8 and 2% SDS) and then run on a 10% SDS-PAGE gel containing 0.1% gelatin for the second dimension. The gel was then run and developed as previously described.
10% SDS-PAGE gelatine substrate gels were loaded with freeze dried egg shell washings from 100 lice eggs that had been resuspended in 50 μL of non-reducing sample buffer with samples run at 10 μL per lane. […]

Setting [9] is: 0-24 h, 10 mM (200 L/Ha), with wetting agent 0.3 ml/L.

On to `COc1ccc(C(=O)CC(=O)c2ccc(C(C)(C)C)cc2)cc1` [1-(4-tert-butylphenyl)-3-(4-methoxyphenyl)-propane-1,3-dione], for which the inhibition at 10000 µM in series [1] amounted to 0%. In series [2] (in vivo), the “Logit calc pLD50” value was 0.7 and the “Pref pLD50” value is listed as under 2.

As to `O=C(CC(=O)c1cc(Cl)ccc1O)c1ccccc1` [1-(5-Chloro-2-hydroxy-phenyl)-3-phenyl-propane-1,3-dione], the inhibition at 10000 µM in series [1] was 0%.

Regarding `c1ccc2nc(-c3ccc4ccccc4n3)ccc2c1` [2,2′-biquinoline], in series [1], the inhibition at 10000 µM stood at 0%.

`c1ccc(-c2ccccn2)nc1` [2,2′-dipyridyl]: the “lice egg hatching” value in series [3] (all time points examined (24-120 hr post egg laying)) is recorded as “completely inhibited”. Further, the “H (number of eggs successfully hatched)” value in series [3] (treated 24 hr post egg laying) was 0; in series [3] (treated 48 hr post egg laying) it was 0; in series [3] (treated 72 hr post egg laying) it was 0; in series [3] (treated 96 hr post egg laying), 1 and 0 (2×); in series [3] (treated 120 hr post egg laying) it was 0. For the same molecule, the “Ph (number of eggs partly hatched)” value in series [3] (treated 24 hr post egg laying), in series [3] (treated 48 hr post egg laying), in series [3] (treated 72 hr post egg laying), in series [3] (treated 96 hr post egg laying) and in series [3] (treated 120 hr post egg laying) was 0 in each case. Moreover, the Ovicidal activity % in series [2] (Lice (L) and Plutella (P), 10 mM) amounted to 100.00%. For the same molecule, the “Activity class 0 = inactive 1 = low 2 = med 3 = high” value in series [2] (Lice (L) and Plutella (P), listed as of 10 mM) was 1 (a pLD50 value between 2 and 3 is considered weakly active (Class 1)).

As for `CC(=O)C1CCc2ccccc2C1=O` (stereo not shown) [2-acetyl-1-tetralone], the figures for the “ovicidal efficacy against H. armigera eggs” value in series [4] (1 mM) and in series [4] (2 mM) were “efficacy declining” and “strong ovicidal efficacy”, respectively. The “ovicidal efficacy against Plutella” value is recorded as “no inhibition observed” in series [5] (0.5 mM); “strong ovicidal efficacy” in series [5] (2 and 1 mM). In series [5] (Plutella xylostella, Plutella (P), 1 mM, read-out: Ovicidal activity %), the inhibition at 1000 µM came out at 100%. In series [5] (Plutella xylostella, Plutella (P), 10 mM, read-out: Ovicidal activity %), the inhibition at 10000 µM is 100%. Also, the “inhibition of H. contortus egg hatch” value in series [6] (22 ug/mL (0.1 mM) (FIG. 10)) is on record as “Partial inhibition of egg hatching”; in series [6] (220 ug/mL (1 mM) and 110 ug/mL (0.5 mM) (FIG. 10)) it was “highly effective at inhibiting egg hatch”.

Consider `c1ccc(Cc2ccccn2)cc1` [2-benzyl-pyridine], for which the inhibition at 10000 µM in series [1] is 0%.

In the case of `O=C(CC(=O)C(F)(F)F)c1ccccc1` [4,4,4-Trifluoro-1-phenyl-butane-1,3-dione], in series [1], the inhibition at 10000 µM was determined as 0%.

Regarding `c1cnc2ccc3ncccc3c2c1` [4,7-phenanthroline], in series [1], the inhibition at 10000 µM amounted to 0%.

For `c1ccc(-c2cc(N3CCOCC3)c3ccccc3n2)nc1` [4-Morpholin-4-yl-2-pyridin-2-yl-quinoline], the inhibition at 10000 µM in series [1] is 0%.

For the molecule `CCc1ccc(-c2ccc(CC)cn2)nc1` [5,5′-diethyl-2,2′-dipyridyl], the “# LARVAE EMERGED” value in series [7] (0-24 h, 10 mM (200 L/Ha) No Wetting Agent) was 0; in series [7] (setting [9]) it was 0. Also, the figures for the “inhibition of Plutella egg hatching” value in series [5] (0.1 mM) and in series [5] (1 mM) were “Partial inhibition of egg hatching” and “complete inhibition”, respectively. Also, the Number hatched came out at 22 in series [5] (0.1 mM in 1% diethoxyglycol) and 0 in series [5] (1 mM in 1% diethoxyglycol). Besides, the Number unhatched in series [5] (0.1 mM in 1% diethoxyglycol) and in series [5] (1 mM in 1% diethoxyglycol) was 34 in each case. Further, the results for the “% Inhibition” value in series [5] (0.1 mM) and in series [5] (1 mM) were 31% and 100%, respectively.

For the molecule `Cc1ccc(-c2ccc(C)cn2)nc1` [5,5′dimethyl-2,2′-dipyridyl], the “# LARVAE EMERGED” value is listed as 0 in series [7] (setting [9]); 0 in series [7] (0-24 h, 20 mM (200 L/Ha), with wetting agent 0.3 ml/L); 0 in series [7] (24-48 h, 10 mM (200 L/Ha), with wetting agent 0.3 ml/L); 0 in series [7] (24-48 h, 20 mM (200 L/Ha), with wetting agent 0.3 ml/L); 0 in series [7] (48-72 h, 20 mM (200 L/Ha), with wetting agent 0.3 ml/L).

`CC(C)C[C@H](NC(=O)[C@H]1O[C@@H]1C(=O)O)C(=O)NCCCCN=C(N)N` [E-64]: the “protease activity of ESW on gelatin SDS-PAGE compared to untreated controls” value in series [8] is on record as “no apparent reduction in protease activity”.

Turning to `O=C(O)CN(CCN(CC(=O)O)CC(=O)O)CC(=O)O` [EDTA, ethylenediamine tetraacetic acid], the “protease activity of ESW on gelatin SDS-PAGE compared to untreated controls” value in series [8] was “reduction in protease activity”.

As to `O=S(=O)(F)Cc1ccccc1` [PMSF], the “protease activity of ESW on gelatin SDS-PAGE compared to untreated controls” value in series [8] is “no apparent reduction in protease activity”.

With `CC(C)CC(=O)N[C@H](C(=O)N[C@H](C(=O)N[C@@H](CC(C)C)[C@@H](O)CC(=O)N[C@@H](C)C(=O)N[C@@H](CC(C)C)[C@@H](O)CC(=O)O)C(C)C)C(C)C` [pepstatin] (Isovaleryl-VV[Sta]A[Sta]-OH), the “protease activity of ESW on gelatin SDS-PAGE compared to untreated controls” value in series [8] is given as “no apparent reduction in protease activity”.
